Among the test systems are CAKI-1 renal; HS 578T breast; IGROV1 ovarian; KM12 colon; OVCAR-5 ovarian; SF-295 CNS; SK-MEL-2 melanoma; UO-31 renal.
What all share (assay): growth of human tumour cells (NCI), 48 h

The structures appear in SMILES notation. “And” between values parts separate entries of the source, which are not always exact repeats. Equal entries are not always repeated.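 Method: 48-hour compound exposure of cells in 96-well plates, five concentrations, linear interpolation of endpoints. Abbreviation: GI50, concentration required for 50% inhibition of growth. TGI marks complete inhibition of growth.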

For nine compounds, TGI and GI50 results are on record in PubChem BioAssay (NCI).

Regarding `CC(C)c1ccc(C(c2c(O)c3ccccc3oc2=O)c2c(O)c3ccccc3oc2=O)cc1`, the TGI in the assay with CAKI-1 renal is 46.5 µM; with HS 578T breast, 61.8 µM; with IGROV1 ovarian, more than 62.6 µM; with KM12 colon it was 40.4 µM; with OVCAR-5 ovarian, 37.4 µM; with SF-295 CNS, 52 µM. The TGI in the assay with SK-MEL-2 melanoma is 30.8 µM; with UO-31 renal it was 28.4 µM.
With `COc1cc2c(cc1OC)-c1c(c3ccc([N+](=O)[O-])cc3c(=O)n1CCCN=[N+]=[N-])C2=O`, the GI50 with CAKI-1 renal is 26.3 µM; in the assay on HS 578T breast, more than 100 µM; in the assay with IGROV1 ovarian it was 7.5 µM; with KM12 colon it was more than 100 µM; with OVCAR-5 ovarian, more than 100 µM; with SF-295 CNS, 30.1 µM. Also, the GI50 with SK-MEL-2 melanoma is more than 100 µM; with UO-31 renal it was 42.4 µM. Moreover, the TGI was 70.7 µM in the assay on CAKI-1 renal; more than 100 µM in the assay on HS 578T breast; more than 100 µM in the assay on IGROV1 ovarian; more than 100 µM in the assay on KM12 colon; more than 100 µM with OVCAR-5 ovarian; more than 100 µM with SF-295 CNS. In addition, the TGI with SK-MEL-2 melanoma and in the assay with UO-31 renal was more than 100 µM each time.
With `CCN(CC)CCNc1ccc(N=Nc2cnc3ccccc3c2)c2ccccc12`, the GI50 with CAKI-1 renal is 1.39 µM; in the assay on HS 578T breast it was 2.62 µM; in the assay with IGROV1 ovarian, 1.67 µM; in the assay on KM12 colon it was 1.56 µM; with OVCAR-5 ovarian, 1.64 µM; with SF-295 CNS, 1.77 µM. For the same compound, the GI50 in the assay on SK-MEL-2 melanoma is 2.34 µM; in the assay on UO-31 renal it was 1.51 µM. The TGI in the assay on CAKI-1 renal is 3.21 µM; in the assay with HS 578T breast, 7.3 µM; with IGROV1 ovarian it was 3.77 µM; in the assay on KM12 colon it was 2.89 µM; in the assay on OVCAR-5 ovarian, 3.24 µM; in the assay with SF-295 CNS, 3.38 µM. The TGI with SK-MEL-2 melanoma stood at 4.3 µM; in the assay with UO-31 renal it was 3.05 µM.
For the compound `CCCCCCCCCCCCSC1=CC(=O)C=CC1=O`, the GI50 in the assay with CAKI-1 renal is 3.26 µM; in the assay on HS 578T breast it was 1.96 µM; with IGROV1 ovarian, 1.06 µM; in the assay with KM12 colon, 1.92 µM; in the assay with OVCAR-5 ovarian it was 11.8 µM; in the assay on SF-295 CNS, 1.44 µM. For the same compound, the results for the GI50 with SK-MEL-2 melanoma and in the assay with UO-31 renal were 7.5 µM and 0.578 µM, respectively. In addition, the TGI was 24.2 µM in the assay with CAKI-1 renal; 21.8 µM in the assay with HS 578T breast; 3.22 µM with IGROV1 ovarian; 8.37 µM with KM12 colon; more than 42 µM in the assay with OVCAR-5 ovarian; 4.75 µM in the assay with SF-295 CNS. In addition, the TGI was found to be 19.4 µM in the assay on SK-MEL-2 melanoma and 2.54 µM with UO-31 renal.
On to `O=C(C(=O)c1cccnc1)c1cccnc1`, for which the GI50 with CAKI-1 renal, with HS 578T breast, in the assay on IGROV1 ovarian, with KM12 colon, with OVCAR-5 ovarian and with SF-295 CNS was more than 100 µM each time. Further, the GI50 in the assay with SK-MEL-2 melanoma and in the assay with UO-31 renal was more than 100 µM each time. For the same compound, the TGI with CAKI-1 renal, in the assay with HS 578T breast, with IGROV1 ovarian, with KM12 colon, in the assay on OVCAR-5 ovarian and in the assay on SF-295 CNS was more than 100 µM in each case. Further, the TGI in the assay with SK-MEL-2 melanoma and in the assay on UO-31 renal was more than 100 µM in each case.
Take `CN1CCN(C(=O)[C@@]2(C)CC[C@]3(C)CC[C@]4(C)C(=CC[C@@H]5[C@@]6(C)CC[C@H](OC(=O)c7cccnc7)C(C)(C)[C@@H]6CC[C@]54C)[C@@H]3C2)CC1`: the GI50 in the assay with HS 578T breast was 1.45 µM; in the assay on IGROV1 ovarian, 1.93 µM; with KM12 colon, 1.9 µM; in the assay with OVCAR-5 ovarian, 1.69 µM; in the assay on SF-295 CNS, 1.62 µM; with SK-MEL-2 melanoma it was 13.2 µM. In addition, the GI50 in the assay on UO-31 renal was 1.43 µM. Further, the TGI stood at 3.14 µM in the assay on HS 578T breast; 3.89 µM in the assay on IGROV1 ovarian; 3.64 µM with KM12 colon; 3.42 µM in the assay on OVCAR-5 ovarian; 3.05 µM with SF-295 CNS; 28.6 µM with SK-MEL-2 melanoma. This compound had a TGI in the assay with UO-31 renal of 2.86 µM.
For `O=C1c2c(c3c4ccccc4n(CCCCCCN4CCOCC4)c3c3[nH]c4ccccc4c23)C(=O)N1O`, the GI50 in the assay with CAKI-1 renal was 8.98 µM; in the assay on HS 578T breast, 2.07 µM; with IGROV1 ovarian, 3.76 µM; with KM12 colon it was 7.01 µM; in the assay on OVCAR-5 ovarian, more than 49.3 µM; in the assay on SF-295 CNS, 16.8 µM. The GI50 is 19.5 µM with SK-MEL-2 melanoma and 1.25 µM in the assay with UO-31 renal. Also, the TGI was 28.9 µM with CAKI-1 renal; 6.61 µM in the assay on HS 578T breast; 49.3 µM in the assay with IGROV1 ovarian; 57.7 µM in the assay with KM12 colon; more than 75.8 µM with OVCAR-5 ovarian; 35.7 µM in the assay on SF-295 CNS. In addition, the TGI turned out to be 46 µM in the assay with SK-MEL-2 melanoma and 3.11 µM with UO-31 renal.
As to `NS(=O)(=O)c1ccc(-n2nc(-c3ccccc3)cc2-c2cc(O)ccc2O)cc1`, the GI50 in the assay with CAKI-1 renal is more than 100 µM; in the assay on HS 578T breast, more than 100 µM; in the assay with IGROV1 ovarian, more than 100 µM; in the assay with KM12 colon, 38.5 µM; in the assay with OVCAR-5 ovarian it was 25.3 µM; in the assay with SF-295 CNS it was more than 100 µM. The GI50 in the assay with SK-MEL-2 melanoma and in the assay on UO-31 renal was more than 100 µM in each case. Moreover, the TGI is more than 100 µM in the assay with CAKI-1 renal; more than 100 µM in the assay with HS 578T breast; more than 100 µM in the assay on IGROV1 ovarian; more than 100 µM in the assay on KM12 colon; 92.6 µM in the assay on OVCAR-5 ovarian; more than 100 µM in the assay with SF-295 CNS. Moreover, the TGI in the assay on SK-MEL-2 melanoma and with UO-31 renal was more than 100 µM in each case.
With `O=c1[nH][nH]c(=O)c2c(O)c(-c3ccccc3)ncc12`, the GI50 with CAKI-1 renal is 83.8 µM and 145 µM; with HS 578T breast, 40.3 µM and 40.2 µM; with IGROV1 ovarian, 247 µM; with KM12 colon, 34.2 µM and 53.1 µM; in the assay with OVCAR-5 ovarian, 60 µM and 160 µM; with SF-295 CNS, 40.7 µM and 69.3 µM. Also, the GI50 is 26 µM and 79.1 µM in the assay with SK-MEL-2 melanoma; 37.4 µM and 129 µM in the assay on UO-31 renal. Moreover, the TGI with CAKI-1 renal is 748 µM; in the assay with HS 578T breast, 672 µM; with IGROV1 ovarian it was 835 µM; with KM12 colon, 482 µM; in the assay on OVCAR-5 ovarian, 832 µM; with SF-295 CNS it was 800 µM. Besides, the TGI in the assay with SK-MEL-2 melanoma is 67.3 µM and 373 µM; in the assay on UO-31 renal, 622 µM.
